Laboratory results reported in patent US8143428B2, “Heteroaryl sulfones and sulfonamides and therapeutic uses thereof” (Temple University-Of The Commonwealth System of Higher …, priority 2004, dated 2012).

Assays:
Type in all cases: cell-based
[1] = test system: chronic myeloid leukemia (K562) cell line; assay: Growth of human tumor cells in culture, K562 (Trypan blue exclusion); details: 96 h continuous treatment, viable cells by Trypan blue exclusion
Protocol: (§1) The effect of compounds according to Formula I on the growth of human tumor cells in culture was evaluated using androgen receptor negative prostate (DU145), colo-rectal (DLD-1), non-small cell lung carcinoma (H157), estrogen receptor negative breast (BT20) and chronic myeloid leukemia (K562) cell lines. All cell cultures were maintained at 37° C. in a humidified atmosphere of 5% CO2.
(§2) Cells were treated with compounds according to Formula I at five different concentrations (1-100 μM range) for each compound. The dose response of each cell line was established by determining the number of viable cells after 96 h of continuous treatment against each of the different test concentrations of each compound. The determination of viable cells was done by the by the Trypan blue exclusion method. Activity for each compound at each concentration is reported as a percentage of cells that remain viable.

[2] = test system: non-small cell lung carcinoma (H157) cell line; assay: Growth of human tumor cells in culture, H157 (Trypan blue exclusion); details: viable cells by Trypan blue exclusion
Protocol: as §1, §2

[3] = test system: colo-rectal (DLD-1) cell line; assay: Growth of human tumor cells in culture, DLD-1 (Trypan blue exclusion); details: DLD-1 cells, 96 h continuous treatment, viable cells by Trypan blue exclusion
Protocol: as §1, §2

[4] = test system: estrogen receptor negative breast (BT20) cell line; assay: Growth of human tumor cells in culture, BT20 (Trypan blue exclusion); details: 96 h continuous treatment, viable cells by Trypan blue exclusion
Protocol: as §1, §2

JNK1 = target: T1, JNK1 (Homo sapiens, UniProt P45983); assay: Activation of Jun kinase: JNK1 immunoprecipitated from treated BT-20 cells, phosphorylation of GST-c-Jun; details: 50 and 100 μM in DMSO, 12 hours at 37° C., compared to DMSO controls
T1 construct: JNK1 in 100 μg of cell lysate was immunoprecipitated; endogenous in cells; host or cells: BT-20 cells
T1 sequence (P45983 whole entry): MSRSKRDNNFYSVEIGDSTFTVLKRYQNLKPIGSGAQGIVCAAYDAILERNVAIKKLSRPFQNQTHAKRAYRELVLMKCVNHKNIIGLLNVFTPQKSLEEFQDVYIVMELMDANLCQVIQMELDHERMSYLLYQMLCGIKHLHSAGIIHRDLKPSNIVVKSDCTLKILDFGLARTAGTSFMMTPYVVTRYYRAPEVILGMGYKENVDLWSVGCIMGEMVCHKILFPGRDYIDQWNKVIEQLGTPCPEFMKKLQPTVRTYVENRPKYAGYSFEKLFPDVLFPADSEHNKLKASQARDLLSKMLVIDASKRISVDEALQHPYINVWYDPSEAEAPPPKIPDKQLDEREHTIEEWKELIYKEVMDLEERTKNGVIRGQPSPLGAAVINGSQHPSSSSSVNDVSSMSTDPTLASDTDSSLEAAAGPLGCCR
Protocol: The compounds of Examples 1, 2, 7, 8 and 9 from Table 3 were analyzed for activation of the Jun kinase signaling pathway. The selected compounds were added to BT-20 cells at concentrations of 50 and 100 μM in dimethyl sulfoxide (DMSO) and incubated for 12 hours at 37° C. The cells were harvested and lysed after 12 hours of treatment. The cell lysates were then analyzed for c-Jun kinase activity by immunoprecipitating JNK1 and assessing the ability of these immunoprecipitates to phosphorylate GST-linked c-Jun. Lysis of the cells was performed after incubation with […], using the lysis buffer [25 mM N-2-hydroxyethylpiperazine-N′-2-ethanesulfonic acid (HEPES) (pH 7.6), 0.1% Triton, 300 mM NaCl, 20 mM β-glycerophosphate, 1.5 mM MgCl2, 0.2 mM ethylenediaminetetraacetic acid (EDTA), 0.5 mM dithiothreitol (DTT), 0.2 mM Na3VO4, 100 μM phenylmethylsulfonyl fluoride (PMSF), 1 mM benzamidine, 2 μg/mL leupeptin and 4 μg/mL aprotinin]. Protein concentrations were measured using Bio-Rad protein assay reagent. JNK1 in 100 μg of cell lysate was immunoprecipitated by incubating […] of lysate protein with […] of the JNK1 polyclonal antibody (Santa Cruz Biotechnology, Inc.,) for 1 h followed by an additional incubation with […] of protein A-Sepharose (Pharmacia) for 1 h. The immune complex bound protein A-Sepharose beads were washed twice with the lysis buffer and twice with JNK buffer (20 mM HEPES, pH 7.6, 20 mM β-glycerophosphate, 10 mM MgCl2 and […] Na3VO4. The kinase reaction was carried out by resuspending the complex bound protein A-Sepharose beads in […] of JNK buffer containing […] [γ-^32P]ATP (5000 CPM/pmol) and incubating them for 20 min at 30° C. using 5 mg GST-c-Jun as substrate. The reaction was terminated by the addition of Laemmli's buffer. The samples were then boiled for 3 min. The phosphorylated GST-c-Jun was then separated on 12% SDS-PAGE. Following the separation, the gel was dried, and an autoradiogram was developed which is reproduced in FIG. 1.

[5] = test system: androgen receptor negative prostate (DU145) cell line; assay: Growth of human tumor cells in culture, DU145 (Trypan blue exclusion); details: 96 h continuous treatment, viable cells by Trypan blue exclusion
Protocol: as §1, §2

[6] = Homo sapiens, NCI-H157, 96 h continuous treatment

| GI50 ([1]; Homo sapiens, K562, 96 h) [µM] | GI50 [2, 6] [µM] | GI50 ([3]; Homo sapiens, DLD-1, 96 h) [µM] | GI50 ([4]; Homo sapiens, BT-20, 96 h) [µM] | c-Jun kinase activity: phosphorylation of GST-c-Jun by immunoprecipitated JNK1 (autoradiogram, FIG. 1) (JNK1) | GI50 ([5]; Homo sapiens, DU-145, 96 h) [µM] | GI50 [1] [µM] | GI50 ([2]; 96 h continuous treatment) [µM] | GI50 [3] [µM] | GI50 [4] [µM] | GI50 [5] [µM] | SMILES |
| --- | --- | --- | --- | --- | --- | --- | --- | --- | --- | --- | --- |
| 14 | 18 | 20 | 16 | hyperphosphorylated | 15 |  |  |  |  |  | COc1ccc(NS(=O)(=O)c2cc3cc(Br)ccc3oc2=O)cc1 [Example 1, 6-Bromo-N-(4-methoxyphenyl)-2-oxo-2H-chromene-3-sulfonamide] |
| 23 | 28 | 32 | 27 | hyperphosphorylated | 22 |  |  |  |  |  | COc1ccc(NS(=O)(=O)c2cc3cc(Cl)ccc3oc2=O)cc1 [Example 2, 6-Chloro-N-(4-methoxyphenyl)-2-oxo-2H-chromene-3-sulfonamide] |
|  |  |  |  |  |  | 48 | 74 | 78 | 52 | 57 | CCOc1cccc2cc(S(=O)(=O)Nc3ccc(OC)cc3)c(=O)oc12 [Example 3, 8-Ethoxy-N-(4-methoxyphenyl)-2-oxo-2H-chromene-3-sulfonamide] |
| 51 | 76 | 82 | 65 |  | 42 |  |  |  |  |  | COc1ccc(NS(=O)(=O)c2cc3cc(Cl)ccc3oc2=O)cc1O [Example 4, 6-Chloro-N-(3-hydroxy-4-methoxyphenyl)-2-oxo-2H-chromene-3-sulfonamide] |
| 42 | 72 | 80 | 54 |  | 48 |  |  |  |  |  | CCOc1cccc2cc(S(=O)(=O)Nc3ccc(F)c(N)c3)c(=O)oc12 [Example 5, N-(3-Amino-4-fluorophenyl)-8-ethoxy-2-oxo-2H-chromene-3-sulfonamide] |
| 44 | 78 | 92 | 68 |  | 56 |  |  |  |  |  | COc1ccc2oc(=O)c(S(=O)(=O)Nc3ccc(F)c(N)c3)cc2c1 [Example 6, N-(3-Amino-4-fluorophenyl)-6-methoxy-2-oxo-2H-chromene-3-sulfonamide] |
| 27 | 32 | 38 | 18 | hyperphosphorylated | 25 |  |  |  |  |  | COc1ccc2oc(=O)c(S(=O)(=O)Nc3ccc(Br)cc3)cc2c1 [Example 7, N-(4-Bromophenyl)-6-methoxy-2-oxo-2H-chromene-3-sulfonamide] |
| 58 | 74 | 85 | 64 | hyperphosphorylated | 52 |  |  |  |  |  | CCOc1cccc2cc(S(=O)(=O)Nc3ccc(OC)cc3)c(=O)oc12 [Example 8, 8-Ethoxy-N-(4-methoxyphenyl)-2-oxo-2H-chromene-3-sulfonamide] |
| 11 | 16 | 18 | 17 | hyperphosphorylated | 14 |  |  |  |  |  | O=c1oc2c(Cl)cccc2cc1S(=O)(=O)Nc1ccc(Br)cc1 [Example 9, N-(4-Bromophenyl)-8-chloro-2-oxo-2H-chromene-3-sulfonamide] |
| 16 | 15 | 14 | 12 |  | 12 |  |  |  |  |  | O=c1oc2c(Br)cccc2cc1S(=O)(=O)Nc1ccc(Br)cc1 [Example 10, N-(4-Bromophenyl)-8-bromo-2-oxo-2H-chromene-3-sulfonamide] |
